# In publication PMC10804407, “Rombocin, a Short Stable Natural Nisin Variant, Displays Selective Antimicrobial Activity against Listeria monocytogenes and Employs a Dual Mode of Action to Kill Target Bacterial Strains” (ACS Synthetic Biology, 2024):
# Read-outs that look alike come from different tables or passages of the source. Primed or numbered codes have the meaning given here. Where no end group is shown, it is not given here. [ ]: non-standard residue; d: D form. Dhb′ = not defined here; Dha = C=C(N)C(=O)O
# Columns and labels:
# [1] = system: E. faecalis LMG16216 (VRE); format: cell-based, Enterococcus faecalis
# Experimental: (§1) Each experiment was performed in triplicate.
# [2] = system: E. faecium LMG16003 (VRE); format: cell-based, Enterococcus faecium
# Experimental: as §1
# E. faecium LMG11423 = format: cell-based, Enterococcus faecium
# Experimental: as §1
# L. lactis MG1363 [3] = format: cell-based, Lactococcus lactis
# Experimental: as §1
# L. monocytogenes TT82E = format: cell-based, Listeria monocytogenes
# Experimental: as §1
# [4] = system: L. monocytogenes LMG10470; format: cell-based, Listeria monocytogenes
# Experimental: as §1
# L. monocytogenes LK132 = format: cell-based, Listeria monocytogenes
# Experimental: as §1
# L. lactis [5] = test: Potassium ion efflux assay (PBFI probe); format: cell-based, Lactococcus lactis; conditions: 5× MIC, 10 mM HEPES pH 7.2 with 0.5% glucose, 10 μM PBFI
# Experimental: To perform the K^+ release assay, we used the K^+-specific fluorescent probe PBFI. L. lactis was cultured in GM17 until the OD600 reached 0.6, after which the cells were harvested (5000g, 5 min) and washed twice with 10 mM HEPES (pH 7.2) with 0.5% glucose. The cells were then resuspended in the same buffer containing 10 μM PBFI. Data were analyzed using a Varioskan LUX Multimode Microplate Reader; cells were excited at 346 nm, and the fluorescence emission was measured at 505 nm to establish a baseline signal before the addition of 5-fold MIC antibiotics, after which data were collected. Nisin was used as a positive control.
# [6] = system: S. aureus LMG15975 (MRSA); format: cell-based, Staphylococcus aureus
# Experimental: as §1
# S. aureus LMG10147 = format: cell-based, Staphylococcus aureus
# Experimental: as §1
# Bacillus cereus CH-85 = format: cell-based
# Experimental: as §1
# [7] = system: trypsin, chymotrypsin, and proteinase K; test: Stability against proteolytic enzymes by residual antimicrobial activity; format: in vitro ADME; conditions: 40 μL peptide (1 mg/mL) with 1 mg/mL proteolytic enzymes, room temperature, 3 h; residual activity in agar well vs L. lactis 1363; triplicate
# Experimental: To investigate the impact of proteolytic enzymes, pH, and temperature on the antimicrobial activity, a representative strain of L. lactis 1363 was utilized. For the proteolytic enzyme assay, 40 μL of peptide (1 mg/mL) was incubated with or without final concentrations of 1 mg/mL proteolytic enzymes at room temperature for 3 h, followed by an activity test in the agar well. To determine pH stability, the pH was adjusted to 2, 4, 7, and 10 using 1 M HCl or NaOH. The temperature stability was assessed by incubating the peptide at 22, 50, 70, and 90 °C for a specified duration. All experiments were performed in triplicate.
# Overnight cultures of the test strains were inoculated at a final concentration of 0.1% (v/v) into melted LB agar at 45 °C and then poured onto plates. After solidification, 8 mm wells were created and filled with 40 μL of the lantibiotic solution (1 mg/mL). The lantibiotics were activated by adding 5 μL of NisP directly to the well. The plates were then incubated overnight at 30 °C, and the zone of inhibition was measured. Zone diameters were calculated by subtracting the area of the well (πr^2) from the area of the zone (πr^2) and reported in millimeters. To determine the peptide concentration, purified and lyophilized peptides were resuspended in 0.05% aqueous acetic acid solution and quantified by HPLC following the protocol described by Schmitt et al.[44] […]
# L. lactis [8] = test: Fluorescence microscopy assay of membrane integrity (SYTO 9 / propidium iodide); format: cell-based, Lactococcus lactis; conditions: 5× MIC, 15 min / 20 min (method), room temperature
# Experimental: L. lactis was cultured until it reached an OD600 of 0.8 and then pelleted at 8000g for 5 min and washed three times in 0.7% NaCl. The cell density was normalized to an OD600 of 0.4 in 0.7% NaCl, and a concentration of 5-fold MIC value of each tested antibiotic was added to the cell suspension simultaneously with SYTO 9 and propidium iodide using the LIVE/DEAD Baclight Bacterial Viability Kit (Invitrogen). After incubation at room temperature for 20 min, the compounds were removed by washing the cells with 0.7% NaCl. Finally, the cell suspensions were loaded onto 1.5% agarose pads and analyzed with a DeltaVision Elite microscope (Applied Precision).
# L. lactis [9] = test: Membrane potential determination (DiSC3(5) probe); format: cell-based, Lactococcus lactis; conditions: 5× MIC, 10 mM HEPES with 10 mM glucose pH 7.2, 2 μM DiSC3(5), 25 min
# Experimental: To measure the membrane potential, the membrane potential-sensitive fluorescent dye DiSC3(5) was utilized. L. lactis was cultured to an OD600 of 0.8, pelleted at 5000g for 5 min, and washed twice in 10 mM HEPES with 10 mM glucose (pH 7.2). The cell density was adjusted to an OD600 of 0.2 and loaded with 2 μM DiSC3(5) dye, followed by 20 min of incubation in the dark to stabilize the probe fluorescence. Next, the cell suspension was added to a 96-well microplate and incubated for 5 min with 100 mM KCl. […] The fluorescence spectrometer’s excitation and emission wavelengths were adjusted to 622 and 670 nm, respectively. Three technical replicates were performed, and the representative example is shown.
# L. lactis MG1363 [10] = test: Time-kill assay; format: cell-based, Lactococcus lactis; conditions: L. lactis, 5-fold MIC, time-dependent killing
# Experimental: The bactericidal activity of nisin, nisin(1–22), and rombocin was evaluated according to a previously described procedure based on Guo et al.[38] Briefly, an overnight culture of L. lactis MG1363 was diluted 50-fold in GM17 medium and incubated at 30 °C. The bacteria were grown until reaching an optical density at 600 nm (OD600) of 0.5, at which point the cell concentration was adjusted to 5 × 10^5 CFU/mL. Subsequently, the bacteria were challenged with a 5-fold MIC of each peptide. A control sample of an untreated cell suspension was included. At specific time points, 50 μL aliquots were collected, and undiluted and 10-fold serially diluted suspensions were plated on GM17 agar. The plates were incubated overnight at 30 °C, and the resulting colonies were counted and calculated as colony-forming units per milliliter (CFU/mL). Both assays were performed in triplicate to ensure reproducibility.
# [11] = system: L. monocytogenes LMG10470; test: Agar well diffusion assay and mutant-activity test; format: cell-based, Listeria monocytogenes; conditions: 40 μL of 1 mg/mL, zone of inhibition, triplicate
# Experimental: Overnight cultures of the test strains were inoculated at a final concentration of 0.1% (v/v) into melted LB agar at 45 °C and then poured onto plates. After solidification, 8 mm wells were created and filled with 40 μL of the lantibiotic solution (1 mg/mL). The lantibiotics were activated by adding 5 μL of NisP directly to the well. The plates were then incubated overnight at 30 °C, and the zone of inhibition was measured. Zone diameters were calculated by subtracting the area of the well (πr^2) from the area of the zone (πr^2) and reported in millimeters. To determine the peptide concentration, purified and lyophilized peptides were resuspended in 0.05% aqueous acetic acid solution and quantified by HPLC following the protocol described by Schmitt et al.[44] All experiments were performed in triplicate.
compound,measurement,setting,value
"C=C(NC(=O)[C@@H](NC(=O)[C@H](Cc1c[nH]cn1)NC(=O)[C@@H](NC(=O)[C@H](CO)NC(=O)[C@@H]1CS[C@@H](C)[C@H]2NC(=O)[C@H](C)NC(=O)[C@H](NC(=O)[C@H](CCCCN)NC(=O)[C@H](CCSC)NC(=O)[C@H](CC(N)=O)NC(=O)[C@@H]3CS[C@@H](C)[C@@H](NC(=O)[C@H](CCCCN)NC(=O)[C@@H]4CS[C@@H](C)[C@@H](NC(=O)[C@@H]5CSC[C@@H](NC(=O)/C(=C/C)NC(=O)[C@@H](N)[C@@H](C)CC)C(=O)N[C@@H]([C@@H](C)CC)C(=O)NC(=C)C(=O)N[C@@H](CC(C)C)C(=O)N5)C(=O)N5CCC[C@H]5C(=O)NCC(=O)N4)C(=O)NCC(=O)N[C@@H](C)C(=O)N[C@@H](CC(C)C)C(=O)N[C@@H](CCSC)C(=O)NCC(=O)N3)[C@H](C)SC[C@H](NC2=O)C(=O)N[C@@H](CC(N)=O)C(=O)N1)[C@@H](C)CC)C(C)C)C(=O)N[C@@H](CCCCN)C(=O)O [nisin Z, reference compound]",MIC,"[1]; E. faecalis LMG16216 (VRE), broth microdilution, no visible growth, triplicate","3,13 μg/mL"
same,fold lower MIC of nisin than rombocin A,[1]; against Enterococcus faecalis,16 fold
same,MIC,"[2]; E. faecium LMG16003 (VRE), broth microdilution, no visible growth, triplicate","3,13 μg/mL"
same,MIC,"E. faecium LMG11423; E. faecium LMG11423, broth microdilution, no visible growth, triplicate","3,13 μg/mL"
same,fold higher antimicrobial activity of nisin than rombocin A (MIC),E. faecium LMG11423; against Enterococcus faecium (strain not given),32 times
same,MIC,"L. lactis MG1363 [3]; L. lactis MG1363, broth microdilution, lowest concentration with no visible growth, triplicate","0,02 μg/mL"
same,fold lower MIC of nisin than that of rombocin,L. lactis MG1363 [3]; against L. lactis,40 times
same,MIC,"L. monocytogenes TT82E; L. monocytogenes TT82E, broth microdilution, no visible growth, triplicate","1,56 μg/mL"
same,MIC,"[4]; L. monocytogenes LMG10470, broth microdilution, no visible growth, triplicate","3,13 μg/mL"
same,MIC,"L. monocytogenes LK132; L. monocytogenes LK132, broth microdilution, no visible growth, triplicate","12,5 μg/mL"
same,fold lower MIC of nisin than rombocin A,L. monocytogenes LK132; against L. monocytogenes LK132,2 fold
same,release of intracellular potassium ions (PBFI fluorescence),L. lactis [5],immediate increase in signal
same,MIC,"[6]; S. aureus LMG15975 (MRSA), broth microdilution, no visible growth, triplicate","6,25 μg/mL"
same,MIC,"S. aureus LMG10147; S. aureus LMG10147, broth microdilution, no visible growth, triplicate","6,25 μg/mL"
same,fold lower MIC of nisin than rombocin A,S. aureus LMG10147; against S. aureus (strain not given),16 fold
same,MIC,"Bacillus cereus CH-85; Bacillus cereus CH-85, broth microdilution, no visible growth, triplicate","6,25 μg/mL"
same,fold lower MIC of nisin than rombocin A,Bacillus cereus CH-85; against Bacillus cereus,4 fold
same,resistance to proteolytic enzymes,[7],varying stability
same,membrane integrity (SYTO 9 / propidium iodide fluorescence),L. lactis [8],membrane disruption
same,membrane depolarization (DiSC3(5) fluorescence),L. lactis [9],"significant membrane depolarization, similar to nisin"
"nisin(1–22): truncated nisin variant, bacteriostatic control that only binds lipid II (I[Dhb′]SI[Dha]LCTPGCKTGALMGCNMK; also: lantibiotic: thioether rings and dehydrated residues not placed; UniProt P13068 24-45, looked up, fragment)",bacteriostatic or bactericidal activity,L. lactis MG1363 [10],bacteriostatic effect
same,release of intracellular potassium ions (PBFI fluorescence),L. lactis [5],did not have this effect
same,membrane integrity (SYTO 9 / propidium iodide fluorescence),L. lactis [8],did not cause any significant membrane disruption
same,membrane depolarization (DiSC3(5) fluorescence),L. lactis [9],did not
C=C1NC(=O)[C@H]([C@@H](C)CC)NC(=O)[C@H](NC(=O)/C(=C/C)NC(=O)[C@@H](N)[C@@H](C)CC)CSC[C@@H](C(=O)N[C@H]2C(=O)N[C@@H](C)C(=O)NCC(=O)N[C@H](C(=O)N[C@@H](CCCCN)C(=O)N[C@H]3C(=O)NCC(=O)N[C@@H](C(C)C)C(=O)N[C@@H]([C@@H](C)CC)C(=O)N[C@@H](CCSC)C(=O)N/C(=C\C)C(=O)N[C@H](C(=O)N[C@@H](CCSC)C(=O)N[C@@H]4CSC[C@@H](C(=O)N[C@@H](CCCCN)C(=O)O)NC(=O)CNC(=O)[C@H](CC(N)=O)NC4=O)CS[C@H]3C)CS[C@H]2C)NC(=O)[C@H](CC(C)C)NC1=O [rombocin K],MIC,[1]; LMG16216,50 µg/mL
same,MIC,[2]; LMG16003,50 µg/mL
same,MIC,E. faecium LMG11423; LMG11423,50 µg/mL
same,MIC,L. lactis MG1363 [3]; MG1363,"0,78 μg/mL"
same,MIC,L. monocytogenes TT82E; TT82E,"6,25 μg/mL"
same,MIC,[4]; LMG10470,"12,5 μg/mL"
same,fold lower MIC compared to the wild-type rombocin,[4]; against all tested Listeria strains,2 fold
same,MIC,L. monocytogenes LK132; LK132,"12,5 μg/mL"
same,MIC,[6]; LMG15975,100 µg/mL
same,MIC,S. aureus LMG10147; LMG10147,100 µg/mL
same,MIC,Bacillus cereus CH-85; CH-85,25 µg/mL
same,increase in antimicrobial activity relative to wild-type rombocin,[11],13%
